Data set [1] is described as follows: Stability in aqueous solution (PBS), peptide remaining in solution by HPLC. It counts as physicochemical. The following applies: 10 mg/ml in PBS, about pH 7.3 to 7.5, 37° C.
Data set [2] is described as follows: Intravenous pharmacokinetics in cynomolgus monkeys. Format: in vivo, cynomolgus monkeys (Macaca fasicularis). Particulars: for clearance / half-life: cynomolgus monkey, plasma, iv, dosed intravenously; for half-life: read-out: Half-life (t ½; hr) (converted); for biological half-life relative to base sequence, in words: comment on Table 2. As for the experimental part: For determining pharmacokinetic properties, an HIV fusion inhibitor peptide or a base sequence from which an HIV fusion inhibitor peptide is derived was dosed intravenously in cynomolgus monkeys (Macaca fasicularis) (other animal models may be used for determining pharmacokinetic properties, as known in the art). At various times post-dose, blood samples were drawn and plasma isolated by centrifugation. Plasma samples were stored frozen until analysis by LC-MS (liquid chromatography/mass spectrometry) in the electrospray, positive-ion mode. An HIV fusion inhibitor or base sequence was eluted from a C18 or C8 HPLC column with a gradient of acetonitrile in a buffer of 10 mM ammonium acetate, pH 6.8. At the time of analysis, plasma samples were deproteinated with either two or three volumes of acetonitrile containing 0.5% formic acid. Duplicate calibration standards in cynomolgus plasma samples were prepared at the same time as the samples and analyzed before and after the samples containing either HIV fusion inhibitor peptide or base sequence. Pharmacokinetic properties were calculated from the plasma concentration-time data using either mono-exponential or bi-exponential mathematical models. Models were derived by non-linear least squares optimization. A 1/C^2 weighting of concentrations was used. The following equations were used to calculate area-under the plasma concentration vs. time curve (AUC), total body clearance (Cl), and terminal elimination half-life (t ½).
Where A and B are intercepts and a and b are the rate constants of the exponential equations describing the distribution and elimination phases, respectively. When mono-exponential models were used, the “A” and “a” properties were eliminated.
Cl=Dose/AUC (expressed in L/K/hr)
t½=0.6903/b (expressed in hr)

The next data set has as its system IIIB. Particulars: starting virus isolate IIIB. An excerpt: (§1) Assessment of biological properties included measurement of antiviral activity against HIV-1 strains. […] These assays score for reduction of infectious virus titer employing the indicator cell lines MAGI or the CCR5 expressing derivative cMAGI. Both cell lines exploit the ability of HIV-1 tat to transactivate the expression of a β-galactosidase reporter gene driven by the HIV-LTR. The β-gal reporter has been modified to localize in the nucleus and can be detected with the X-gal substrate as intense nuclear staining within a few days of infection. The number of stained nuclei can thus be interpreted as equal to the number of infectious virions in the challenge inoculum if there is only one round of infection prior to staining. […] In the MAGI and cMAGI assays, a 50% reduction in infectious titer (Vn/Vo=0.5) is significant, and provides the primary cutoff value for assessing antiviral activity (“IC50” is defined as the concentration of active ingredient resulting in a 50% reduction in infectious virus titer). […] The peptide (in the respective dilution) was added to the cMAGI or MAGI cells, followed by the virus inocula; and 24 hours later, an inhibitor of infection and cell-cell fusion (e.g., SEQ ID NO:2 (enfuvirtide)) was added to prevent secondary rounds of HIV infection and cell-cell virus spread. The cells were cultured for 2 more days, and then fixed and stained with the X-gal substrate to detect HIV-infected cells. The number of infected cells for each control and peptide dilution was determined with the CCD-imager, and then the IC50 was calculated (expressed in μg/ml).
(§2) In particular, in vitro resistance comparison studies were performed between the novel SEQ ID NO:9 compound of interest and established antiviral agent SEQ ID NO:2, described in detail as follows: MT2 cells were infected with virus isolates (IIIB, 030, 060 and 098) and cultured in increasing concentrations of SEQ ID NO:2 (enfuvirtide) or SEQ ID NO:9 to select for resistance. The initial peptide concentration was approximately 2 times the IC50 of each peptide against the corresponding wild type isolate. Peptide concentrations were maintained by adding fresh peptide every 1-3 days. Cultures were monitored for cytopathic effect (CPE) using standard techniques and when maximal CPE was achieved, a small aliquot of virus was used for subsequent rounds of infection. Peptide concentrations were increased 2 to 4-fold depending on the length of time in culture when compared to the growth rate of wild type virus. During the course of selection, peptide-free virus stocks were also collected. Peptide-free virus stocks were characterized for gp41 genotypic changes by dideoxy sequencing chemistries and phenotypic susceptibility was determined using a cMAGI infectivity assay.

Data set [3] deals with virus isolates (IIIB, 030, 060 and 098). Particulars: Geometric Mean of four isolates.
Description: as §1, §2

The subject of another data set is 584.000060.
Description: as §1, §2

For the next data set, the system named is 584.000030.
Description: as §1, §2

For another data set, the system named is 584.000098.
Description: as §1, §2

For orientation: clearance means a measure of how efficiently the substance is removed, as volume per time. Low readings indicate inefficient removal, high ones efficient removal. A word on the half-life: it is the time in which the quantity being followed falls by half.

As to `CC[C@H](C)[C@H](NC(=O)[C@H](C)NC(=O)[C@H](CCCNC(=N)N)NC(=O)[C@H](CC(=O)O)NC(=O)[C@H](Cc1c[nH]c2ccccc12)NC(=O)[C@H](C)NC(=O)[C@H](CCC(=O)O)NC(=O)[C@H](Cc1c[nH]c2ccccc12)NC(=O)[C@@H](NC(=O)[C@@H](NC(C)=O)[C@@H](C)O)[C@@H](C)O)C(=O)N[C@@H](C)C(=O)N[C@@H](CCC(=O)O)C(=O)N[C@@H](Cc1ccc(O)cc1)C(=O)N[C@@H](C)C(=O)N[C@@H](C)C(=O)N[C@@H](CCCNC(=N)N)C(=O)N[C@H](C(=O)N[C@@H](CCC(=O)O)C(=O)N[C@@H](C)C(=O)N[C@@H](CC(C)C)C(=O)N[C@H](C(=O)N[C@@H](CCCNC(=N)N)C(=O)N[C@@H](C)C(=O)N[C@@H](C)C(=O)N[C@@H](CCC(N)=O)C(=O)N[C@@H](CCC(=O)O)C(=O)N[C@@H](CCC(N)=O)C(=O)N[C@@H](CCC(N)=O)C(=O)N[C@@H](CCC(=O)O)C(=O)N[C@@H](CCCCN)C(=O)N[C@@H](CC(N)=O)C(=O)N[C@@H](CCC(=O)O)C(=O)N[C@@H](C)C(=O)N[C@@H](C)C(=O)N[C@@H](CC(C)C)C(=O)N[C@@H](CCCNC(=N)N)C(=O)N[C@@H](CCC(=O)O)C(=O)N[C@@H](CC(C)C)C(N)=O)[C@@H](C)CC)[C@@H](C)CC` [SEQ ID NO:5], the “peptide remaining detectable in solution” value in data set [1] (time point of 1 week) is given as “less than 80%”. In data set [2], the clearance was over 0.667 mL/min/kg and the half-life was 6 h.

Take “Ac-TTWEAWDRAIAEYAARIEALIRAAQEQQEKLEAALREL-NH2 (N-terminus and C-terminus assumed) [SEQ ID NO:7]”: in data set [2], the “biological half-life relative to base sequence, in words” value is “increased biological half-life”; the clearance is under 0.333 mL/min/kg; the half-life is 17 h.

On to “Ac-TTWEAWDRAIAEYAARIEALIRALQEQQEKNEAALREL-NH2 (N-terminus and C-terminus assumed) [SEQ ID NO:6]”, for which, in data set [2], the “biological half-life relative to base sequence, in words” value is reported as “increased biological half-life”; the clearance was under 0.333 mL/min/kg; the half-life was 15 h.

“Ac-TTWEAWDRAIAEYAARIEALLRAAQEQQEKNEAALREL-NH2 (N-terminus and C-terminus assumed) [SEQ ID NO:8]”: in data set [2], the “biological half-life relative to base sequence, in words” value is listed as “does not exhibit the dramatic increase in half-life”; the clearance is over 0.667 mL/min/kg; the half-life was 7 h.

Regarding enfuvirtide, the “stability of solution, in words” value in data set [1] is “becomes unstable after just several hours”. Besides, the “Fold Change in IC50” value in the data set on IIIB came to 27; in data set [3], 42; in the data set with 584.000060 (starting virus isolate 584.000060) it was 7; with 584.000030 (starting virus isolate 584.000030), 19; in the data set with 584.000098 (starting virus isolate 584.000098), 912. Moreover, the “Ending IC50” value in the data set on IIIB (after selection) stood at 0.163 µg/mL; in data set [3] (after selection), 0.797 µg/mL; in the data set on 584.000060 (starting virus isolate 584.000060, after selection), 0.068 µg/mL; in the data set with 584.000030 (starting virus isolate 584.000030, after selection), 0.798 µg/mL; with 584.000098 (starting virus isolate 584.000098, after selection), 45.575 µg/mL. Moreover, the “Starting IC50” value in the data set with IIIB (before selection) amounted to 0.006 µg/mL; in data set [3] (before selection), 0.019 µg/mL; with 584.000060 (starting virus isolate 584.000060, before selection), 0.01 µg/mL; in the data set on 584.000030 (starting virus isolate 584.000030, before selection) it was 0.042 µg/mL; in the data set on 584.000098 (starting virus isolate 584.000098, before selection) it was 0.05 µg/mL.

For the origin of these results see US20090068243A1, “Novel formulations for delivery of antiviral peptide therapeutics” (priority 2007, published 2009).
